Measured values taken from patent publication US7943628B2, “Pyrimidine derivatives” (Pfizer Limited, priority 2005, dated 2011).
Read-outs that look alike come from different tables or passages of the source.

Target: T1, histamine H4 receptor (Homo sapiens, UniProt Q9H3N8)
T1 construct: expressed in transfected cells; host or cells: CHO cells
Assay: H4 binding, method 2 ([3H]-histamine binding with Ysi WGA beads on CHO cell membranes)
Settings: H4 binding, method 2, Ki calculated from IC50 (Cheng-Prussoff)
Procedure: Cell pellets from CHO cells expressing the histamine H4 receptor were homogenised in ice-cold 50 mM Tris-HCl/0.5 mM CaCl2 buffer containing a protease inhibitor cocktail (Roche®, United Kingdom) using a ground glass homogeniser. Homogenates were centrifuged at 48000 g for 30 min at 4° C. The membrane pellet was resuspended in fresh buffer and the centrifugation step was repeated as described above. The membrane pellet was resuspended in 50 mM Tris-HCl in the same volume as the original cell pellet. Aliquots of membrane preparations were stored at −80° C. and were used for [^3H]-Histamine binding experiments.
Cell membranes (15 μg/well) were pre-incubated for 120 min shaking at 4° C. with Ysi WGA beads (250 μg/well) in 50 mM Tris-HCl (pH 7.4) followed by centrifugation at 1500 rpm for 5 minutes and resuspension in 50 mM Tris-HCl (pH 7.4). The membrane/bead mixture (15 μg membrane/250 μg beads well) was incubated for 90 minutes shaking at room temperature with 6.5 nM [2,5-^3H] Histamine dihydrochloride (30-60 Ci/mmol) in 50 mM Tris-HCl (pH 7.4), with or without competing H4 ligands. Non-specific binding was defined with 10 μM JNJ7777120. Bound radiolabel was determined using scintillation counting techniques after 90 minutes.

T1 sequence (Q9H3N8 whole entry): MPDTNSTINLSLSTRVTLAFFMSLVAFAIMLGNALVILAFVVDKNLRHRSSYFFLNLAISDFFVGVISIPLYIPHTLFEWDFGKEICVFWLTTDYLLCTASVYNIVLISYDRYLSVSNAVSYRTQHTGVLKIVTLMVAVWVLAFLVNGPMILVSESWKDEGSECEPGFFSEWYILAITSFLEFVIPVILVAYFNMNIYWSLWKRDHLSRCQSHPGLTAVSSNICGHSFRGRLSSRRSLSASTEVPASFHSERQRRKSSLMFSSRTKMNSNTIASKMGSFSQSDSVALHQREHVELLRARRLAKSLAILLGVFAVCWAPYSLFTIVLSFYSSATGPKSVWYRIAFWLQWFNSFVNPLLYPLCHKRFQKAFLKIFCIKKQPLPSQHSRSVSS

| Compound | Ki (read-out: Method 2 (Ki (nM))) [nM] | Ki (Method 2 (Ki (nM))) [nM] |
| --- | --- | --- |
| CNC1CN(c2cc(NCc3ccc(Cl)cc3)nc(N)n2)C1 [Example 81, N^4-(4-Chlorobenzyl)-6-[3-(methylamino)azetidin-1-yl]pyrimidine-2,4-diamine] | 12.1 |  |
| CNC1CN(c2cc(NCc3ccccc3C)nc(N)n2)C1 [Example 82, 6-[3-(Methylamino)azetidin-1-yl]-N^4-(2-methylbenzyl)pyrimidine-2,4-diamine] | 9.68 |  |
| CNC1CN(c2cc(NCc3cccc(C)c3)nc(N)n2)C1 [Example 83, 6-[3-(Methylamino)azetidin-1-yl]-N^4-(3-methylbenzyl)pyrimidine-2,4-diamine] | 62.3 |  |
| CNC1CN(c2cc(NCc3ccccc3C(F)(F)F)nc(N)n2)C1 [Example 84, 6-[3-(Methylamino)azetidin-1-yl]-N^4-[2-(trifluoromethyl)benzyl]pyrimidine-2,4-diamine] | 21.7 |  |
| CNC1CN(c2cc(NCc3ccc(C(F)(F)F)cc3)nc(N)n2)C1 [Example 85, 6-[3-(Methylamino)azetidin-1-yl]-N^4-[4-(trifluoromethyl)benzyl]pyrimidine-2,4-diamine] | 156 |  |
| CNC1CN(c2cc(NCc3cccc(Cl)c3)nc(N)n2)C1 [Example 86, N^4-(3-Chlorobenzyl)-6-[3-(methylamino)azetidin-1-yl]pyrimidine-2,4-diamine] | 142 |  |
| CNC1CN(c2cc(NCc3ccccc3OC)nc(N)n2)C1 [Example 87, N^4-(2-Methoxybenzyl)-6-[3-(methylamino)azetidin-1-yl]pyrimidine-2,4-diamine] | 17.4 |  |
| CNC1CN(c2cc(NCc3ccc(C)cc3)nc(N)n2)C1 [Example 88, 6-[3-(Methylamino)azetidin-1-yl]-N^4-(4-methylbenzyl)pyrimidine-2,4-diamine] | 35.8 |  |
| CNC1CN(c2cc(NCc3ccccc3Cl)nc(N)n2)C1 [Example 89, N^4-(2-Chlorobenzyl)-6-[3-(methylamino)azetidin-1-yl]pyrimidine-2,4-diamine] | 1.93 |  |
| CNC1CN(c2cc(NCc3ccc(F)cc3)nc(N)n2)C1 [Example 90, N^4-(4-Fluorobenzyl)-6-[3-(methylamino)azetidin-1-yl]pyrimidine-2,4-diamine] | 6.42 |  |
| CN1CCN(c2cc(NCc3cccc(F)c3)nc(N)n2)CC1 [Example 91, N^4-(3-Fluorobenzyl)-6-(4-methylpiperazin-1-yl)pyrimidine-2,4-diamine] | 386 |  |
| CN1C[C@@H]2CN(c3cc(NCc4cccc(F)c4)nc(N)n3)C[C@@H]2C1 [Example 92, N^4-(3-Fluorobenzyl)-6-[(3aR*,6aS*)-5-methylhexahydropyrrolo [3,4-c]pyrrol-2(1H)-yl]pyrimidine-2,4-diamine] | 1350 |  |
| C[C@@H]1CN(c2cc(NCCC(C)(C)C)nc(N)n2)CCN1 [Example 93, N^4-(3,3-Dimethylbutyl)-6-[(3R)-3-methylpiperazin-1-yl]pyrimidine-2,4-diamine] | 256 |  |
| C[C@H]1CN(c2cc(NCCC(C)(C)C)nc(N)n2)CCN1 [Example 94, N^4-(3,3-Dimethylbutyl)-6-[(3S)-3-methylpiperazin-1-yl]pyrimidine-2,4-diamine] | 61.1 |  |
| C[C@@H]1CN(c2cc(NCC(C)(C)C)nc(N)n2)CCN1 [Example 95, N^4-(2,2-Dimethylpropyl)-6-[(3R)-3-methylpiperazin-1-yl]pyrimidine-2,4-diamine] | 9.11 |  |
| C[C@H]1CN(c2cc(NCC(C)(C)C)nc(N)n2)CCN1 [Example 96, N^4-(2,2-Dimethylpropyl)-6-[(3S)-3-methylpiperazin-1-yl]pyrimidine-2,4-diamine] | 3.77 |  |
| CCNc1cc(N2CCN[C@H](C)C2)nc(N)n1 [Example 97, N^4-Ethyl-6-[(3R)-3-methylpiperazin-1-yl]pyrimidine-2,4-diamine] |  | 43.7 |
| CCNc1cc(N2CCN[C@@H](C)C2)nc(N)n1 [Example 98, N^4-Ethyl-6-[(3S)-3-methylpiperazin-1-yl]pyrimidine-2,4-diamine] |  | 56.2 |
| CC(C)CCNc1cc(N2CCN(C)CC2)nc(N)n1 [Example 108, N^4-(3-Methylbutyl)-6-(4-methylpiperazin-1-yl)pyrimidine-2,4-diamine] | 8.42 |  |
| CN[C@@H]1CCN(c2cc(NCCC(C)(C)C)ncn2)C1 [Example 109, N-(3,3-Dimethylbutyl)-6-[(3R)-3-(methylamino)pyrrolidin-1-yl]pyrimidin-4-amine] | 42.7 |  |
| COCCNc1cc(N2CCN(C)CC2)ncn1 [Example 110, N-(2-Methoxyethyl)-6-(4-methylpiperazin-1-yl)pyrimidin-4-amine] | 829 |  |
| CN1CCN(c2cc(NC[C@@H]3CCCO3)ncn2)CC1 [Example 112, 6-(4-Methylpiperazin-1-yl)-N-[(2S)-tetrahydrofuran-2-ylmethyl]pyrimidin-4-amine] | 635 |  |

| Compound | Ki (read-out: Method 2 (Ki (nM))) [nM] | Ki (Method 2 (Ki (nM))) [nM] |
| --- | --- | --- |
| CN1CCN(c2cc(NC[C@H]3CCCO3)ncn2)CC1 [Example 113, 6-(4-Methylpiperazin-1-yl)-N-[(2R)-tetrahydrofuran-2-ylmethyl]pyrimidin-4-amine] | 1480 |  |
| CN1CCN(c2cc(N3CCCC3)ncn2)CC1 [Example 114, 4-(4-Methylpiperazin-1-yl)-6-pyrrolidin-1-ylpyrimidine] | 1030 |  |
| CN1CCN(c2cc(NCCC(F)(F)F)ncn2)CC1 [Example 115, 6-(4-Methylpiperazin-1-yl)-N-(3,3,3-trifluoropropyl)pyrimidin-4-amine] | 494 |  |
| Cc1c(NCC(C)C)ncnc1N1CCN(C)CC1 [Example 116, N-Isobutyl-5-methyl-6-(4-methylpiperazin-1-yl)pyrimidin-4-amine] | 426 |  |
| CCNc1cc(N2C[C@H]3CN(C)C[C@H]3C2)ncn1 [Example 117, N-Ethyl-6-[(3aR*,6aS*)-5-methylhexahydropyrrolo[3,4-c]pyrrol-2(1H)-yl]pyrimidin-4-amine] | 1620 |  |
| CC(C)(C)CCNc1cc(N2CC(N)C2)ncn1 [Example 118, 6-(3-Aminoazetidin-1-yl)-N-(3,3-dimethylbutyl)pyrimidin-4-amine] | 1090 |  |
| C[C@@H]1CN(c2cc(NCCC(C)(C)C)nc(N)n2)CCN1C [Example 124, N^4-(3,3-Dimethylbutyl)-6-[(3R)-3,4-dimethylpiperazin-1-yl]pyrimidine-2,4-diamine] | 537 |  |
| CC(C)(C)CNc1cc(N2C[C@@H]3[C@@H](N)[C@@H]3C2)nc(N)n1 [Example 126, 6-[(1R*,5S*,6s*)-6-Amino-3-azabicyclo[3.1.0]hex-3-yl]-N^4-(2,2-dimethylpropyl)pyrimidine-2,4-diamine] | 611 |  |
| CC(C)(C)CNc1cc(N2CCN3CCCC3C2)nc(N)n1 (stereo not shown) [Example 141, N^4-(2,2-Dimethylpropyl)-6-(hexahydropyrrolo[1,2-a]pyrazin-2(1H)-yl)pyrimidine-2,4-diamine] |  | 4.97 |
| CC(C)(C)CNc1cc(N2CCC(N3CCCC3)C2)nc(N)n1 (stereo not shown) [Example 327, 6-[(3-S)-1,3′-Bipyrrolidin-1′-yl]-N^4-(2,2-dimethylpropyl)pyrimidine-2,4-diamine] | 376 |  |
| CC(C)CCNc1cc(N[C@@H]2CCNC2)ncn1 [Example 329, N-(3-Methylbutyl)-N′-[(3R)-pyrrolidin-3-yl]pyrimidine-4,6-diamine] | 1420 |  |
| CN1CCN(c2cc(NCCC(C)(C)C)nc(N(C)C)n2)CC1 [Example 330, N^4-(3,3-Dimethylbutyl)-N^2,N^2-dimethyl-6-(4-methylpiperazin-1-yl)pyrimidine-2,4-diamine] | 1440 |  |
| Cc1c(NC(C)C)ncnc1N1CCN(C)CC1 [Example 331, N-isoPropyl-5-methyl-6-(4-methylpiperazin-1-yl)pyrimidin-4-amine] | 2670 |  |
| CC(C)(C)CCNc1cc(N2CC[C@H](N3CCCC3)C2)nc(N)n1 [Example 332, 6-[(3′S)-1,3′-Bipyrrolidin-1′-yl]-N^4-(3,3-dimethylbutyl)pyrimidine-2,4-diamine] | 2690 |  |
| CC(C)(C)CCNc1cc(N2CC3C(N)C3C2)nc(N)n1 (stereo not drawn) [Example 333, 6-[(1R*,5S*,6s*)-6-Amino-3-azabicyclo[3.1.0]hex-3-yl]-N^4-(3,3-dimethylbutyl)pyrimidine-2,4-diamine] | 3120 |  |
| CN1CCN(c2cc(N(C)CC3CC3)ncn2)CC1 [Example 334, N-(Cyclopropylmethyl)-N-methyl-6-(4-methylpiperazin-1-yl)pyrimidin-4-amine] | 5070 |  |
| COCCNc1cc(N[C@@H]2CCNC2)ncn1 [Example 335, N-(2-Methoxyethyl)-N′-[(3R)-pyrrolidin-3-yl]pyrimidine-4,6-diamine] | 5350 |  |
| CNC1CN(c2cc(N3CCCC3)ncn2)C1 [Example 336, N-Methyl-1-(6-pyrrolidin-1-ylpyrimidin-4-yl)azetidin-3-amine] | 6330 |  |
| c1ccc(CNc2cc(N[C@@H]3CCNC3)ncn2)cc1 [Example 337, N-Benzyl-N′-[(3R)-pyrrolidin-3-yl]pyrimidine-4,6-diamine] | 7220 |  |
| CC(C)(C)CCNc1cc(N[C@H]2CCN(Cc3ccccc3)C2)nc(N)n1 [Example 338, N^4-[(3S)-1-Benzylpyrrolidin-3-yl]-N6-(3,3-dimethylbutyl)pyrimidine-2,4,6-triamine] | 7930 |  |
| CNc1nc(NCCC(C)(C)C)cc(N2CCN(C)CC2)n1 [Example 339, N^4-(3,3-Dimethylbutyl)-N^2-methyl-6-(4-methylpiperazin-1-yl)pyrimidine-2,4-diamine] | 9070 |  |
